Assays:
[1] = tested on: male leptin deficient ob/ob mice; assay: TMA lyase inhibition in leptin deficient ob/ob mice (Con vs Con+IMC); format: in vivo; settings: 0.06% IMC in control diet, 16 weeks
Description: 6-week-old male leptin deficient ob/ob mice were maintained on either control diet (Con) or control diet supplemented with 0.06% TMA lyase inhibitor iodomethyl choline (Con+IMC) for 16 weeks. Results are shown in FIG. 7(F-J): F) Plasma TMA and TMAO levels (uM); G) Body weight (g); H) Food consumption normalized to body weight (g of diet consumed per day per g of body weight); I) Glucose tolerance measured after 12 weeks on diet; and J) Mean oxygen consumption (VO2; ml/kg/hr) measured after 5 weeks on diet; n=6 mice/group.
FIG. 8A-F represents data from HFD model and G-K the Ob/Ob model. FIG. 8A,G. Principal co-ordinate analysis (PCoA) plot of microbiota profiles built from weighted Unifrac distances. Each point represents a single sample from a single mouse. Positions of points in space display dissimilarities in the microbiota, with points further from one another being more dissimilar. FIG. 8B,H. Barplot of cecal microbiota at the phylum level. Each bar represents an individual mouse and each color an individual phyla. FIG. 8C. Relative abundance of Firmicutes, Bacteroidetes and the Firmicutes to Baceteroidetes ratio for mice on HFD with or without IMC. […] Points extending beyond the lines are outliers defined as values greater or less than 1.5 times the interquartile range. […] FIG. 8E,J. Spearman's correlation between Akkermansia muciniphila and TMA/body weight. […]

[2] = tested on: male C57BL6/J mice on 60% high fat diet; assay: TMA lyase inhibition in high fat diet-fed mice (HFD vs HFD+IMC); format: in vivo; settings: 0.06% IMC in 60% high fat diet, 6-week-old male C57BL6/J mice
Procedure: 6-week-old male C57BL6/J mice were maintained on either 60% high fat diet (HFD) or HFD supplemented with 0.06% TMA lyase inhibitor iodomethyl choline (HFD+IMC) for weeks. Results are shown in FIG. 7 (A-E): A) Plasma TMA and TMAO levels (uM); B) Body weight (g); C) Food consumption normalized to body weight (g of diet consumed per day per g of body weight); D) Glucose tolerance measured after 12 weeks on diet; and E) Plasma insulin measured following an overnight fast (Fasted) or 4 hours postprandially (Fed); n=4-5 mice/group.
To determine the role of TMA and TMAO on diet-induced obesity, cohorts of 6-week-old male C57BL6/J mice fed HFD and HFD+IMC were supplemented with either 100 mM TMA in the drinking water (K-M) or 0.3% w/w TMAO in the diet (N-P). […] FIGS. 7K-P specifically show: K) Plasma TMA and TMAO levels (uM) after 6 weeks on diet and TMA supplementation; L) Body weight (g) over 12 weeks; M) Glucose tolerance measured after 10 weeks on diet and TMA supplementation; N) Plasma TMA and TMAO levels (uM) after 12 weeks on diet and TMAO supplementation; O) Body weight (g) over 20 weeks; and P) Glucose tolerance measured after 12 weeks on diet and TMAO supplementation. n=8-10 mice per diet group for all studies unless otherwise indicated. […] Statistical significance determined using student's t-test or two-way ANOVA where appropriate. […]

[3] = tested on: G protein-coupled receptor trace amine-associated receptor 5 (TAAR5); settings: Li et al., 2013; cited from earlier work

SMILES | obesity driven by leptin deficiency [1] | obesity driven by high fat diet [2] | activation/recognition of TAAR5 [3]
C[N+](C)(CI)CCO [IMC, iodomethyl choline] | improves obesity | improves obesity | –
CN(C)C [TMA, trimethylamine] | – | – | known to activate
C[N+](C)(C)[O-] [TMAO, trimethylamine-N-oxide] | – | – | does not recognize

Reference: patent US11771659B2, “Treating disease and promoting weight loss by inhibiting the TMA/FMO3/TMAO pathway” (The Cleveland Clinic Foundation, priority 2017, dated 2023)
